Results from paper PMC11053489 (Viruses, 2024).
Counter-ions that a name gives are not always drawn. Like-named read-outs stand apart in the source and are kept apart here.

Key:
[1] = in vitro; conditions: African green monkey
[2] = system: SARS-CoV-2 (hCoV-19/USA-WA1/2020) in Vero CCL-81 cells; experiment: microbe, parasite or virus in culture; type: cell-based; conditions: for anti-SARS-CoV-2 activity (in words), concentrations up to 100 μM: Vero CCL-81 cells
[3] = human, in vivo
[4] = Peak plasma concentration; conditions: human, in vivo
[5] = MTS cytotoxicity assay, Vero CCL-81 cells; conditions: African green monkey
[6] = system: CCRF-CEM cells; conditions: human, 4 days
[7] = in vitro; conditions: human
[8] = system: SARS-CoV-2 (hCoV-19/USA-WA1/2020) in Calu-3 cells; experiment: microbe, parasite or virus in culture; type: cell-based; conditions: for EC50 / EC90: Severe acute respiratory syndrome coronavirus 2, Calu-3, MOI 0.01, 72 h, 2% FBS; for EC50: read-out: Calu-3 SARS-CoV-2 EC50; for EC90: read-out: Calu-3 SARS-CoV-2 EC90
[9] = system: Huh-7 cells; conditions: human, 4 days
[10] = in vitro; conditions: human, Caco-2
[11] = in vitro; conditions: human; remark: listed apart in the source
[12] = system: SARS-CoV-2 (hCoV-19/USA-WA1/2020) in Caco-2 cells; conditions: Caco-2
[13] = system: SARS-CoV-2 (hCoV-19/USA-WA1/2020) in Caco-2 cells; experiment: microbe, parasite or virus in culture; conditions: Severe acute respiratory syndrome coronavirus 2, Caco-2, 72 h; for EC50: read-out: Caco-2 SARS-CoV-2 EC50; for EC90: read-out: Caco-2 SARS-CoV-2 EC90
[14] = cited from earlier work; for Fun: Table 3, 1 – fraction bound reported in the literature, ref column Refs of Table 3
[15] = Severe acute respiratory syndrome coronavirus 2, Table 3, drugs tested only in Vero CCL-81, MOI 0.1, 48 h, read-out: Vero CCL-81 Cells EC50
[16] = Severe acute respiratory syndrome coronavirus 2, Table 3, drugs tested only in Vero CCL-81, MOI 0.1, 48 h, read-out: Vero CCL-81 Cells EC90
[17] = Severe acute respiratory syndrome coronavirus 2, Table 1 drugs, MOI 0.1, 48 h, 2% FBS, read-out: Vero CCL-81 SARS-CoV-2 EC50
[18] = Severe acute respiratory syndrome coronavirus 2, Table 1 drugs, MOI 0.1, 48 h, 2% FBS, read-out: Vero CCL-81 SARS-CoV-2 EC90
[19] = NAs and nucleoside-base precursors, evaluated up to 20 μM

CC#CC(=O)N1CCC[C@H]1c1nc(-c2ccc(C(=O)Nc3ccccn3)cc2)c2c(N)nccn12 [Acalabrutinib]
CC50 at 3 days [1]: > 100 µM | EC50 [2, 15]: 11.1 µM | EC90 [2, 16]: 70.9 µM | Cmax (μM) {unbound} [3]: 0.017 µM

NC12CC3CC(CC(C3)C1)C2 [Amantadine]
Cmax (μM) {unbound} [4]: 0.002 µM | CC50 at 3 days [5]: > 100 µM

Cc1cccc(/C=N/Nc2cc(N3CCOCC3)nc(OCCc3ccccn3)n2)c1 [Apilimod mesylate]
CEM CC50 {Unbound} [6]: 62.2 µM | CC50 at 3 days [7]: > 100 µM | EC50 [8]: > 100 µM | anti-SARS-CoV-2 activity in Calu-3 cells (in words) ([8]; tested up to 100 μM): inactive | Huh7 CC50 {Unbound} [9]: 54.8 µM | CC50 at 3 days [1]: > 100 µM | CC50 at 3 days [10]: > 100 µM | CC50 at 5 days [11]: > 100 µM | EC50 [2, 17]: 0.7 µM | EC90 [2, 18]: 7.4 µM | Caco-2 Unbound Cmax/EC50 [12]: 0.0005 | EC50 [13]: 85 µM | EC90 [13]: > 100 µM | Cmax (μM) {unbound} [3]: 0.043 µM

CN(Cc1cc(Br)cc(Br)c1N)C1CCCCC1 [Bromhexine]
CC50 at 3 days [1]: > 100 µM | EC50 [2, 15]: 0.8 µM | EC90 [2, 16]: 6.2 µM | Cmax (μM) {unbound} [3]: 0.005 µM

CCCCCc1cc(O)c2c(c1)OC(C)(C)c1ccc(C)cc1-2 [Cannabinol]
CC50 [1]: 37.3 µM | Fun [14]: 0.1 | EC50 ([2]; Severe acute respiratory syndrome coronavirus 2, 48 h, read-out: Vero CCL-81 Cells EC50): 2.7 µM | EC90 ([2]; Severe acute respiratory syndrome coronavirus 2, 48 h, read-out: Vero CCL-81 Cells EC90): 8.7 µM

CN(C)CCC(c1ccc(Cl)cc1)c1ccccn1 (centres unmarked) [Chlorpheniramine maleate]
Cmax (μM) {unbound} [4]: 0.008 µM | CC50 at 3 days [5]: > 100 µM | Fun [14]: 0.28 | EC50 [2, 15]: 31 µM | EC90 [2, 16]: 104 µM

CC(C)C(=O)OCC(=O)[C@@]12O[C@H](C3CCCCC3)O[C@@H]1C[C@H]1[C@@H]3CCC4=CC(=O)C=C[C@]4(C)[C@H]3[C@@H](O)C[C@@]12C [Ciclesonide]
CC50 at 3 days [1]: 33.9 µM | EC50 [2, 15]: 4.1 µM | EC90 [2, 16]: 7.8 µM | Cmax (μM) {unbound} [3]: 0.0000/1 μM

CC(C)/N=c1\cc2n(-c3ccc(Cl)cc3)c3ccccc3nc-2cc1Nc1ccc(Cl)cc1 [Clofazimine]
Cmax (μM) {unbound} [4]: 0.002 µM | CC50 at 3 days [1]: 34.3 µM | Fun [14]: 0.001 | EC50 [2, 15]: 0.5 µM | EC90 [2, 16]: 3 µM

O=C(O)Cc1ccccc1Nc1c(Cl)cccc1Cl [Diclofenac sodium]
Cmax (μM) {unbound} [4]: 0.012 µM | CC50 at 3 days [5]: > 100 µM | EC50 [2, 15]: 97.6 µM | EC90 [2, 16]: 141 µM

C[C@H]1c2cccc(O)c2C(=O)C2=C(O)[C@]3(O)C(=O)C(C(N)=O)=C(O)[C@@H](N(C)C)[C@@H]3[C@@H](O)[C@@H]21 [Doxycycline]
Cmax (μM) {unbound} [4]: 0.55 µM | CC50 at 3 days [5]: ≥ 100 µM | Fun [14]: 0.15 | EC50 [2, 15]: 69.3 µM | EC90 [2, 16]: 102 µM

COC(=O)N[C@H](C(=O)N1CCC[C@H]1c1nc(-c2ccc3c(c2)O[C@@H](c2ccccc2)n2c-3cc3cc(-c4c[nH]c([C@@H]5CCCN5C(=O)[C@@H](NC(=O)OC)C(C)C)n4)ccc32)c[nH]1)C(C)C [Elbasivir]
CC50 at 3 days [1]: > 100 µM | EC50 [2, 15]: 3.4 µM | EC90 [2, 16]: 12.5 µM | Cmax (μM) {unbound} [3]: 0.003 µM

NC(N)=Nc1nc(CSCCC(N)=NS(N)(=O)=O)cs1 [Famotidine]
Cmax (μM) {unbound} [4]: 0.16 µM | CC50 at 3 days [5]: > 100 µM | Fun [14]: 0.8 | EC50 [2, 15]: 160 µM

CN1CC[C@H](c2c(O)cc(O)c3c(=O)cc(-c4ccccc4Cl)oc23)[C@H](O)C1 [Flavopiridol]
Cmax (μM) {unbound} [4]: 0.096 µM | CC50 at 3 days [5]: 0.031 µM | Fun [14]: 0.05 | EC50 [2, 15]: 0.1 µM | EC90 [2, 16]: 1.1 µM

O=C1O[C@H]([C@@H](O)CO)C(O)=C1O [L-ascorbic acid]
anti-SARS-CoV-2 activity (in words), concentrations up to 100 μM [2]: inactive

COc1ccc2[nH]cc(CCNC(C)=O)c2c1 [Melatonin]
Cmax (μM) {unbound} [4]: 0.005 µM | CC50 at 3 days [5]: > 100 µM | Fun [14]: 0.22 | EC50 [2, 15]: 22 µM

CC(C)C(=O)OC[C@H]1O[C@@H](n2ccc(NO)nc2=O)[C@H](O)[C@@H]1O [Molnupiravir (NHC), Molnupiravir]
EC50 [8]: 0.4 µM | EC90 [8]: 1.8 µM | Fun (unbound fraction of drug in plasma) ([14]; plasma): 1 | EC50 [2, 17]: 0.6 µM | EC90 [2, 18]: 1.4 µM | Caco-2 Unbound Cmax/EC50 [12]: 5.3 | EC50 [13]: 1.7 µM | EC90 [13]: 12.2 µM | Cmax (μM) {unbound} [3]: 7.10 µM

CC(C)(O)c1ccccc1CC[C@@H](SCC1(CC(=O)O)CC1)c1cccc(/C=C/c2ccc3ccc(Cl)cc3n2)c1 [Montelukast sodium]
Cmax (μM) {unbound} [4]: 0.009 µM

CC(=O)Oc1ccccc1C(=O)Nc1ncc([N+](=O)[O-])s1 [Nitazoxanide]
CC50 at 3 days [7]: 49.8 µM | EC50 [8]: 22.8 µM | EC90 [8]: 42.9 µM | CC50 at 3 days [1]: 8.7 µM | CC50 at 3 days [10]: 7.2 µM | Fun (unbound fraction of drug in plasma) ([14]; Table 1, ref column Refs of Table 1): 0.01 | CC50 at 5 days [11]: 8.3 µM | EC50 [2, 17]: 1.4 µM | EC90 [2, 18]: 3.9 µM | Caco-2 Unbound Cmax/EC50 [12]: 0.078 | EC50 [13]: 4.4 µM | EC90 [13]: 11.1 µM | Cmax (μM) {unbound} [3]: 0.014 µM

CC(C)C(=O)OC[C@H]1O[C@@](C#N)(c2ccc3c(N)ncnn23)[C@H](O)[C@@H]1O [Obeldesivir]
Caco-2 Unbound Cmax/EC50 [12]: 72 | Cmax (μM) {unbound} [3]: 5.79 µM

COC[C@H]1C[C@@H](c2ncc(-c3ccc4c(c3)COc3cc5c(ccc6nc([C@@H]7CC[C@H](C)N7C(=O)[C@@H](NC(=O)OC)C(C)C)[nH]c65)cc3-4)[nH]2)N(C(=O)[C@H](NC(=O)OC)c2ccccc2)C1 [Velpatasvir]
CC50 at 3 days [1]: > 100 µM | EC50 [2, 15]: 19.1 µM | EC90 [2, 16]: 79.6 µM | Cmax (μM) {unbound} [3]: 0.001 µM

O=C(O)COCCN1CCN(C(c2ccccc2)c2ccc(Cl)cc2)CC1 (centres unmarked) [cetirizine]
anti-SARS-CoV-2 activity (in words), concentrations up to 100 μM [2]: inactive

C[C@@H]1C[C@H]2[C@@H]3CCC4=CC(=O)C=C[C@]4(C)[C@@]3(F)[C@@H](O)C[C@]2(C)[C@@]1(O)C(=O)CO [dexamethasone]
anti-SARS-CoV-2 activity (in words), concentrations up to 100 μM [2]: inactive

Nc1nc(=O)n([C@@H]2CS[C@H](CO)O2)cc1F [emtricitabine]
antiviral activity in Vero CCL-81 cells (in words) [2, 19]: lack of antiviral activity

Nc1ccn([C@@H]2CS[C@H](CO)O2)c(=O)n1 [lamivudine]
antiviral activity in Vero CCL-81 cells (in words) [2, 19]: lack of antiviral activity

c1cc(CN2CCCNCCNCCCNCC2)ccc1CN1CCCNCCNCCCNCC1 [plerixafor]
anti-SARS-CoV-2 activity (in words), concentrations up to 100 μM [2]: inactive

NC(=O)c1ncn([C@@H]2O[C@H](CO)[C@@H](O)[C@H]2O)n1 [ribavirin]
antiviral activity in Vero CCL-81 cells (in words) [2, 19]: lack of antiviral activity

CC(C)OC(=O)[C@H](C)N[P@](=O)(OC[C@H]1O[C@@H](n2ccc(=O)[nH]c2=O)[C@](C)(F)[C@@H]1O)Oc1ccccc1 [sofosbuvir]
antiviral activity in Vero CCL-81 cells (in words) [2]: lack of antiviral activity

CC(C)OC(=O)[C@H](C)N[P@](=O)(CO[C@H](C)Cn1cnc2c(N)ncnc21)Oc1ccccc1 [tenofovir alafenamide]
antiviral activity in Vero CCL-81 cells (in words) [2]: lack of antiviral activity

CC(C)OC(=O)OCOP(=O)(CO[C@H](C)Cn1cnc2c(N)ncnc21)OCOC(=O)OC(C)C [tenofovir disoproxil fumarate]
antiviral activity in Vero CCL-81 cells (in words) [2, 19]: lack of antiviral activity
